The record followed here is US20240270723A1, “SUBSTITUTED HETEROCYCLIC COMPOUNDS” (BRISTOL-MYERS SQUIBB COMPANY, priority 2021, published 2024).

Series [1] has as its system IFNα-induced pSTAT5 in human whole blood (CD3 positive population). In words: IFNα-Induced STAT Phosphorylation in Human Whole Blood. The class given is cell-based. The settings on record: 1 h incubation with compound, 1000 U/mL IFNα A/D for 15 min, pSTAT5 in CD3 positive cells, read-out: Human Whole blood IFNa pSTAT5 IC50. Here is the method:
IFNα-Induced STAT Phosphorylation in Human Whole Blood
After an hour long incubation with compound, human whole blood (drawn with ACD-A as anticoagulant) was stimulated with 1000 U/mL recombinant human IFNα A/D (R&D Systems 11200-2) for 15 min. The stimulation was stopped by adding Fix/Lyse buffer (BD 558049). Cells were stained with a CD3 FITC antibody (BD 555916), washed, and permeabilized on ice using Perm III buffer (BD 558050). Cells were then stained with an Alexa-Fluor 647 pSTAT5 (pY694) antibody (BD 612599) for 60 min prior to analysis on the iQue Plus. The amount of pSTAT5 expression was quantitated by median fluorescence intensity after gating on the CD3 positive population.

A short description of a further series: in vitro. The settings on record: human, Caco-2, pH 7.4.

The structures appear in SMILES notation.

With `[2H]C([2H])([2H])NC(=O)c1nnc(NC(=O)C2CC2)cc1Nc1ncnc(-c2cnn(C)n2)c1OC` [Example 1, 6-(cyclopropanecarboxamido)-4-((5-methoxy-6-(2-methyl-2H-1,2,3-triazol-4-yl)pyrimidin-4-yl)amino)-N-(methyl-d3)pyridazine-3-carboxamide], the IC50 in series [1] stood at 320 nM. In addition, in “in vitro”, the Papp A→B at 2 h, 3 μM was 26.1 ×10⁻⁶ cm/s and the efflux ratio at 2 h, 3 μM is 1.8.
Regarding `[2H]C([2H])([2H])NC(=O)c1nnc(NC(=O)C2CC2)cc1Nc1ccnc(-c2cnn(C)n2)c1OC` [Example 2, 6-(cyclopropanecarboxamido)-4-((3-methoxy-2-(2-methyl-2H-1,2,3-triazol-4-yl)pyridin-4-yl)amino)-N-(methyl-d3)pyridazine-3-carboxamide], the 50% inhibitory concentration (IC50) in series [1] is 50 nM. Besides, in the series “in vitro”, the Papp A→B at 2 h, 3 μM turned out to be 12.2 ×10⁻⁶ cm/s and the efflux ratio at 2 h, 3 μM was determined as 4.9.
For the molecule `[2H]C([2H])([2H])NC(=O)c1nnc(NC(=O)C2CC2)cc1Nc1ccnc(-c2cnn(C3CC3)n2)c1OC` [Example 3, 6-(cyclopropanecarboxamido)-4-((2-(2-cyclopropyl-2H-1,2,3-triazol-4-yl)-3-methoxypyridin-4-yl)amino)-N-(methyl-d3)pyridazine-3-carboxamide], the half-inhibitory concentration (IC50) in series [1] was found to be 190 nM. In “in vitro”, the apical-to-basolateral permeability (Papp A→B) at 2 h, 3 μM stood at 9.8 ×10⁻⁶ cm/s and the efflux ratio at 2 h, 3 μM came to 3.3.
With `[2H]C([2H])([2H])NC(=O)c1nnc(NC(=O)C2CC2)cc1Nc1ccnc(-c2cnn(C3CC3)c2)c1OC` [Example 4, 6-(cyclopropanecarboxamido)-4-((2-(1-cyclopropyl-1H-pyrazol-4-yl)-3-methoxypyridin-4-yl)amino)-N-(methyl-d3)pyridazine-3-carboxamide], the IC50 in series [1] is 350 nM. Further, in the series “in vitro”, the Papp A→B at 2 h, 3 μM was 13.8 ×10⁻⁶ cm/s and the efflux ratio at 2 h, 3 μM came to 2.8.
The matching figures for `[2H]C([2H])([2H])NC(=O)c1nnc(NC(=O)C2CC2)cc1Nc1cncc(-c2cnn(C3CC3)n2)c1OC` [Example 5, 6-(cyclopropanecarboxamido)-4-((5-(2-cyclopropyl-2H-1,2,3-triazol-4-yl)-4-methoxypyridin-3-yl)amino)-N-(methyl-d3)pyridazine-3-carboxamide]: 1090 nM, 34.2 ×10⁻⁶ cm/s and 1.1.
